In patent US10150764B2, “Substituted benzene compounds” (Epizyme, Inc., priority 2013, dated 2018):

Tests used:
[1] = target: wild-type EZH2 (PRC2 enzyme) (Homo sapiens (Human), UniProt Q15910); test: PRC2 enzyme assay on peptide substrate, wild-type EZH2 (H3K27me0 peptide, 3H-SAM Flashplate); format: biochemical; settings: wild-type PRC2 4 nM, read-out: WT EZH2 IC50
Protocol: (§1) Human PRC2 enzymes were purified as 4-component enzyme complexes co-expressed in Spodoptera frugiperda (sf9) cells using a baculovirus expression system. […] The EED subunit contained an N-terminal FLAG tag that was used to purify the entire 4-component complex from sf9 cell lysates.
(§2) The assays were all performed in a buffer consisting of 20 mM bicine (pH=7.6), 0.5 mM DTT, 0.005% BSG and 0.002% Tween20, prepared on the day of use. […] DMSO (1 μL) was added to columns 11, 12, 23, 24, rows A-H for the maximum signal control, and SAH, a known product and inhibitor of PRC2 (1 μL) was added to columns 11, 12, 23, 24, rows I-P for the minimum signal control. A cocktail (40 μL) containing the wild-type PRC2 enzyme and H3K27me0 peptide or any of the Y641 mutant enzymes and H3K27me2 peptide was added by Multidrop Combi (Thermo). The compounds were allowed to incubate with PRC2 for 30 min at 25° C., then a cocktail (10 μL) containing a mixture of non-radioactive and ^3H-SAM was added to initiate the reaction (final volume=51 μL). […] The assays were stopped by the addition of non-radioactive SAM (10 μL) to a final concentration of 600 μM, which dilutes the ^3H-SAM to a level where its incorporation into the peptide substrate is no longer detectable. 50 of the reaction in the 384-well polypropylene plate was then transferred to a 384-well Flashplate and the biotinylated peptides were allowed to bind to the streptavidin surface for at least 1 h before being washed three times with 0.1% Tween20 in a Biotek ELx405 plate washer. The plates were then read in a PerkinElmer TopCount platereader to measure the quantity of ^3H-labeled peptide bound to the Flashplate surface, measured as disintegrations per minute (dpm) or alternatively, referred to as counts per minute (cpm).

[2] = target: EZH2 Y641F mutant (PRC2 enzyme) (Homo sapiens (Human), UniProt Q15910, Y641F); test: PRC2 enzyme assay on peptide substrate, EZH2 Y641F mutant (H3K27me2 peptide, 3H-SAM Flashplate); format: biochemical; settings: Y641F mutant PRC2 4 nM
Chain of EZH2 Y641F mutant (PRC2 enzyme) (Q15910 whole entry Y641F): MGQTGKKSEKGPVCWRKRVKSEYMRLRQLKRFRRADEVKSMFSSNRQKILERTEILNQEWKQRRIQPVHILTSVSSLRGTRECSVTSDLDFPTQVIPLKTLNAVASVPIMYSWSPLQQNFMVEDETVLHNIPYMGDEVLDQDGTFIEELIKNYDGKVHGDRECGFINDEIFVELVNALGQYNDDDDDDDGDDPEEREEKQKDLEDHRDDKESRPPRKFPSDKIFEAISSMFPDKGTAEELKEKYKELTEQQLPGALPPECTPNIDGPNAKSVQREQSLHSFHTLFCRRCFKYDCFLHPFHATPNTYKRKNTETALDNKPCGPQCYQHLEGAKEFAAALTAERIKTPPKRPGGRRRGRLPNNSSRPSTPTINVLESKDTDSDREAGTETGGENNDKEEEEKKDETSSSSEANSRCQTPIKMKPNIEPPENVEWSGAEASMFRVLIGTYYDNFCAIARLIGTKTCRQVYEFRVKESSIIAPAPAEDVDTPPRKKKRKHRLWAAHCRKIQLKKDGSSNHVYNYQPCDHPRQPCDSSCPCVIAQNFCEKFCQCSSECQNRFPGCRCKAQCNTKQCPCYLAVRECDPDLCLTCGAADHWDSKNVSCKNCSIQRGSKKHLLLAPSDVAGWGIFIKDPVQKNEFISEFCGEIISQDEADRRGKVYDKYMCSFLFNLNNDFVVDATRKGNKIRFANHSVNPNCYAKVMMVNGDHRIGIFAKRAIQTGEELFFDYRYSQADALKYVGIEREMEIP
Chain of EZH2 Y641F mutant (PRC2 enzyme) (O75530 whole entry partner): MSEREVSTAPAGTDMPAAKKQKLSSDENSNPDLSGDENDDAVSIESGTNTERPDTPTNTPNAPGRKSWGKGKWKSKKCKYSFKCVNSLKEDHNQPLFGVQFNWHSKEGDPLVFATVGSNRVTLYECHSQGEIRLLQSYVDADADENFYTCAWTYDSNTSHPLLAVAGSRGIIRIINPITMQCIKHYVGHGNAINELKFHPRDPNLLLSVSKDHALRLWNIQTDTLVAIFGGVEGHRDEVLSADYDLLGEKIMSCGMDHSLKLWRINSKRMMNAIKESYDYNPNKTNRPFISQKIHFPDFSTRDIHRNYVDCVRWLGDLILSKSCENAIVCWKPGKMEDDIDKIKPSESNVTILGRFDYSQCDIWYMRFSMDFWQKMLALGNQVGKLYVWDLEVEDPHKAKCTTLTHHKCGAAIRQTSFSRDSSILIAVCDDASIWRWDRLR
Chain of EZH2 Y641F mutant (PRC2 enzyme) (Q15022 whole entry partner): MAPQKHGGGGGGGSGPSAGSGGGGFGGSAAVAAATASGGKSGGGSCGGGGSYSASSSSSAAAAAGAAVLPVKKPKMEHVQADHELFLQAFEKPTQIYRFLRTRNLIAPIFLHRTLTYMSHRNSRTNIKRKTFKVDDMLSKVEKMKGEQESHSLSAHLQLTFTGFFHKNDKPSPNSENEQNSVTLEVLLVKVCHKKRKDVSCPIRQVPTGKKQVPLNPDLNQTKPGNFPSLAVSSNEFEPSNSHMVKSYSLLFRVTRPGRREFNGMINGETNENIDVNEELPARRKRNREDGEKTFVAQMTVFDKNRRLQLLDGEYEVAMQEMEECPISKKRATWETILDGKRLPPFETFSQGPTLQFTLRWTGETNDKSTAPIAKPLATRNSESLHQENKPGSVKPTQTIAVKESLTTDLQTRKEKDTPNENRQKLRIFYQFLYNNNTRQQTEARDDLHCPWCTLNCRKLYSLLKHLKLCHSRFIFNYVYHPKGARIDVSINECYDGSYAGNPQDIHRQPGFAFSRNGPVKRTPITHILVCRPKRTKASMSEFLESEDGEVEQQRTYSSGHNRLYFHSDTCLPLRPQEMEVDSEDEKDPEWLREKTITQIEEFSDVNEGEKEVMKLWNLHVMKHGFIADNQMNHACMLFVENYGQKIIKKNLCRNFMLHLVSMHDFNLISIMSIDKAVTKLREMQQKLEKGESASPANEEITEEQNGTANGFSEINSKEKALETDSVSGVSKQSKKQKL
Chain of EZH2 Y641F mutant (PRC2 enzyme) (Q09028 whole entry partner): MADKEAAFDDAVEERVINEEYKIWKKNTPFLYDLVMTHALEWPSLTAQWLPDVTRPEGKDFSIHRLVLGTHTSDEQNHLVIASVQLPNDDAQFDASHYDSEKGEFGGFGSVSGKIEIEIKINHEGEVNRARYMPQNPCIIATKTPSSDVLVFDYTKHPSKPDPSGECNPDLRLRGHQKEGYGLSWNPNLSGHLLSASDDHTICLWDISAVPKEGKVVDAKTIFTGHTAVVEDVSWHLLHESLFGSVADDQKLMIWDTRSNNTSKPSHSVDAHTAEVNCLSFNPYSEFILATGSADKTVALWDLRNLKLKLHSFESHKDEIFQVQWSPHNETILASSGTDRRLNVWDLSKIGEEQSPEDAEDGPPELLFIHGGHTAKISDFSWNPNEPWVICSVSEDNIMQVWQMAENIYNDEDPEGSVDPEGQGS
Protocol: as §1, §2

[3] = system: H3K27me3 in WSU-DLCL2 cells; test: WSU-DLCL2 methylation assay (H3K27me3 ELISA); format: cell-based, human; settings: Homo sapiens, WSUDLCL2, 96 hours incubation, H3K27me3 normalised to total H3
Excerpt: WSU-DLCL2 Methylation Assay
WSU-DLCL2 suspension cells were purchased from DSMZ (German Collection of Microorganisms and Cell Cultures, Braunschweig, Germany). RPMI/Glutamax Medium, Penicillin-Streptomycin, Heat Inactivated Fetal Bovine Serum, and D-PBS were purchased from Life Technologies, Grand Island, N.Y., USA. Extraction Buffer and Neutralization Buffer (5×) were purchased from Active Motif, Carlsbad, Calif., USA. Rabbit anti-Histone H3 antibody was purchased from Abcam, Cambridge, Mass., USA. Rabbit anti-H3K27me3 and HRP-conjugated anti-rabbit-IgG were purchased from Cell Signaling Technology, Danvers, Mass., USA. TMB “Super Sensitive” substrate was sourced from BioFX Laboratories, Owings Mills, Md., USA. IgG-free Bovine Serum Albumin was purchased from Jackson ImmunoResearch, West Grove, Pa., USA. PBS with Tween (10×PBST) was purchased from KPL, Gaithersburg, Md., USA. Sulfuric Acid was purchased from Ricca Chemical, Arlington, Tex., USA. Immulon ELISA plates were purchased from Thermo, Rochester, N.Y., USA. V-bottom cell culture plates were purchased from Corning Inc., Corning, N.Y., USA. V-bottom polypropylene plates were purchased from Greiner Bio-One, Monroe, N.C., USA.
WSU-DLCL2 suspension cells were maintained in growth medium (RPMI 1640 supplemented with 10% v/v heat inactivated fetal bovine serum and 100 units/mL penicillin-streptomycin) and cultured at 37° C. under 5% CO2. Under assay conditions, cells were incubated in Assay Medium (RPMI 1640 supplemented with 20% v/v heat inactivated fetal bovine serum and 100 units/mL penicillin-streptomycin) at 37° C. under 5% CO2 on a plate shaker.
WSU-DLCL2 cells were seeded in assay medium at a concentration of 50,000 cells per mL to a 96-well V-bottom cell culture plate with 200 μL per well. […] Plates were incubated on a titer-plate shaker at 37° C., 5% CO2 for 96 hours. After four days of incubation, plates were spun at 241×g for five minutes and medium was aspirated gently from each well of cell plate without disturbing cell pellet. Pellet was resuspended in: 200 μL DPBS and plates were spun again at 241×g for five minutes. The supernatant was aspirated and cold (4° C.) Extraction buffer (100 μL) was added per well. Plates were incubated at 4° C. on orbital shaker for two hours. Plates were spun at 3427×g×10 minutes. Supernatant (80 μL per well) was transferred to its respective well in 96 well V-bottom polypropylene plate. Neutralization Buffer 5× (20 μL per well) was added to V-bottom polypropylene plate containing supernatant. V-bottom polypropylene plates containing crude histone preparation (CHP) were incubated on orbital shaker×five minutes. Crude Histone Preparations were added (2 μL per well) to each respective well into duplicate 96 well ELISA plates containing 100 μL Coating Buffer (1×PBS+BSA 0.05% w/v). Plates were sealed and incubated overnight at 4° C. The following day, plates were washed three times with 300 μL per well 1×PBST. […] For H3K27me3 detection, 100 μL of HRP conjugated anti-rabbit IgG antibody diluted to 1:4000 in ELISA diluent was added per well. Plates were incubated at room temperature for 90 minutes. […] TMB substrate 100 μL was added per well. Histone H3 plates were incubated for five minutes at room temperature. H3K27me3 plates were incubated for 10 minutes at room temperature. The reaction was stopped with sulfuric acid 1N (100 μL per well). Absorbance for each plate was read at 450 nm.
Each plate included eight control wells DMSO only treatment (Minimum Inhibition) as well as eight control wells for maximum inhibition (Background wells).
The average of the ratio values for each control type was calculated and used to determine the percent inhibition for each test well in the plate. Test compound was serially diluted three-fold in DMSO for a total of ten test concentrations, beginning at 25 μM.

[4] = system: WSU-DLCL2 cells; test: Cell proliferation analysis, WSU-DLCL2 (Cell Titer Glo); format: cell-based; settings: Homo sapiens, WSUDLCL2, 144 h, 6 days incubation, ATP readout
Excerpt: Cell Proliferation Analysis
WSU-DLCL2 suspension cells were purchased from DSMZ (German Collection of Microorganisms and Cell Cultures, Braunschweig, Germany), RPMI/Glutamax Medium, Penicillin-Streptomycin, Heat Inactivated Fetal Bovine Serum were purchased from Life Technologies, Grand Island, N.Y., USA, V-bottom polypropylene 384-well plates were purchased from Greiner Bio-One, Monroe, N.C., USA. Cell culture 384-well white opaque plates were purchased from Perkin Elmer, Waltham, Mass., USA. Cell-Titer Glo® was purchased from Promega Corporation, Madison, Wis., USA. SpectraMax M5 plate reader was purchased from Molecular Devices LLC, Sunnyvale, Calif., USA.
WSU-DLCL2 suspension cells were maintained in growth medium (RPMI 1640 supplemented with 10% v/v heat inactivated fetal bovine serum and cultured at 37° C. under 5% CO2. Under assay conditions, cells were incubated in Assay Medium (RPMI 1640 supplemented with 20% v/v heat inactivated fetal bovine serum and 100 units/mL penicillin-streptomycin) at 37° C. under 5% CO2.
For the assessment of the effect of compounds on the proliferation of the WSU-DLCL2 cell line, exponentially growing cells were plated in 384-well white opaque plates at a density of 1250 cell/ml in a final volume of 50 μl of assay medium. A compound source plate was prepared by performing triplicate nine-point 3-fold serial dilutions in DMSO, beginning at 10 mM (final top concentration of compound in the assay was 20 μM and the DMSO was 0.2%). A 100 nL aliquot from the compound stock plate was added to its respective well in the cell plate. […] After addition of compounds, assay plates were incubated for 6 days at 37° C., 5% CO2, relative humidity >90% for 6 days. Cell viability was measured by quantization of ATP present in the cell cultures, adding 35 μl of Cell Titer Glo® reagent to the cell plates. Luminescence was read in the SpectraMax M5. The concentration inhibiting cell viability by 50% was determined using a 4-parametric fit of the normalized dose response curves.

Chain of wild-type EZH2 (PRC2 enzyme) (Q15910 whole entry): as the sequence (Q15910 whole entry Y641F) above, with F641Y counted along it
Chain of wild-type EZH2 (PRC2 enzyme) (O75530 whole entry partner): as the sequence (O75530 whole entry partner) above
Chain of wild-type EZH2 (PRC2 enzyme) (Q15022 whole entry partner): as the sequence (Q15022 whole entry partner) above
Chain of wild-type EZH2 (PRC2 enzyme) (Q09028 whole entry partner): as the sequence (Q09028 whole entry partner) above

IC50 [1]: 21 nM
IC50 [2]: 1 nM
SMILES: CCN(c1cc(Cl)cc(C(=O)NCc2c(OC)n(C)[nH]c2=O)c1C)[C@H]1CC[C@H](N(C)C)CC1 [Compound 86, 5-chloro-3-(ethyl((trans)-4-(dimethylamino)cyclohexyl]amino)-N-((5-methoxy-1-methyl-3-oxo-2,3-dihydro-1H-pyrazol-4-yl)methyl)-2-methylbenzamide]
IC50 [3]: 1790 nM
IC50 [4]: 1130 nM
